From ChEMBL document CHEMBL1201862, “PubChem BioAssay data set” (2004)
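A five-concentration, 48-hour dose response in 96-well plates underlies each endpoint, interpolated linearly between surrounding concentrations. The concentration for 50% growth inhibition is given as GI50.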 Activity calls are given as the source filed them. No stated cut-off is given here; in the data, active = GI50 up to about 1.1 µM and inactive = higher.

Tests used:
Experiment in all cases: inhibition of tumour cell growth, NCI panel, 48 h
[1] = system: 786-0
[2] = system: BT-549
[3] = system: COLO 205
[4] = system: EKVX
[5] = system: HCC 2998
[6] = system: HCT-116
[7] = system: HCT-15
[8] = system: HOP-62
[9] = system: IGROV-1
[10] = system: KM12
[11] = system: NCI-H23
[12] = system: NCI/ADR-RES
[13] = system: OVCAR-8
[14] = system: SF-295
[15] = system: SK-MEL-28
[16] = system: SK-MEL-5
[17] = system: SK-OV-3
[18] = system: T47D
[19] = system: SNB-75
[20] = system: HOP-92

SMILES | GI50 [1] | GI50 [2] | GI50 [3] | GI50 [4] | GI50 [5] | GI50 [6] | GI50 [7] [µM] | GI50 [8] | GI50 [9] | GI50 [10] | GI50 [11] | GI50 [12] | GI50 [13] | GI50 [14] | GI50 [15] | GI50 [16] | GI50 [17] | GI50 [18] | GI50 [19] | GI50 [20]
COc1ccc([N+](=O)[O-])cc1[I+]c1cc([N+](=O)[O-])ccc1OC | > 100 µM (inactive) | 30.9 µM (inactive) | 68.9 µM (inactive) | 33.8 µM (inactive) | 42.2 µM (inactive) | 89.5 µM (inactive) | 41.1 | > 100 µM (inactive) | 23 µM (inactive) | 22.7 µM (inactive) | 55.1 µM (inactive) | > 100 µM (inactive) | 73.6 µM (inactive) | 33.3 µM (inactive) | 7.64 µM (inactive) | 12.4 µM (inactive) | 29.4 µM (inactive) | 28.8 µM (inactive) |  | 
COc1ccc2c(c1C)C(=O)C(O)(CC=C(C)C)O2 (stereo not drawn) | > 100 µM (inactive) | > 100 µM (inactive) | > 100 µM (inactive) | > 100 µM (inactive) | > 100 µM (inactive) | > 100 µM (inactive) | > 100 | > 100 µM (inactive) | > 100 µM (inactive) | > 100 µM (inactive) | > 100 µM (inactive) | > 100 µM (inactive) | > 100 µM (inactive) | > 100 µM (inactive) | > 100 µM (inactive) | > 100 µM (inactive) | > 100 µM (inactive) | > 100 µM (inactive) | > 100 µM (inactive) | 
COC1OC(Cc2nnc(C)o2)C(OCc2ccccc2)C(OCc2ccccc2)C1OCc1ccccc1 (stereo not drawn) | 40.6 µM (inactive) | 25.7 µM (inactive) | 20.7 µM (inactive) | 12.7 µM (inactive) |  | 37.4 µM (inactive) | 35.9 | 52.1 µM (inactive) | 13.9 µM (inactive) | 15.8 µM (inactive) | 19.9 µM (inactive) | 24.3 µM (inactive) |  | 18.9 µM (inactive) | 22.9 µM (inactive) | 16.3 µM (inactive) | 77.4 µM (inactive) | 52.5 µM (inactive) | 74.3 µM (inactive) | 35.3 µM (inactive)
Cc1ccc(-n2c(Cn3nnc(-c4cccnc4)n3)nn(C3OC(COC(=O)c4ccccc4)C(OC(=O)c4ccccc4)C3OC(=O)c3ccccc3)c2=S)cc1 (stereo not drawn) | > 100 µM (inactive) | > 100 µM (inactive) | > 100 µM (inactive) | > 100 µM (inactive) | > 100 µM (inactive) | > 100 µM (inactive) | > 100 | > 100 µM (inactive) | > 100 µM (inactive) | > 100 µM (inactive) | > 100 µM (inactive) | > 100 µM (inactive) | > 100 µM (inactive) | > 100 µM (inactive) | > 100 µM (inactive) | > 100 µM (inactive) | > 100 µM (inactive) | > 100 µM (inactive) | 52.6 µM (inactive) | 
CC[N+](C)(CC)CCC(O)(c1ccccc1)c1ccccc1 | > 100 µM (inactive) | > 100 µM (inactive) | > 100 µM (inactive) | > 100 µM (inactive) | > 100 µM (inactive) | > 100 µM (inactive) | > 100 | > 100 µM (inactive) | > 100 µM (inactive) | > 100 µM (inactive) | > 100 µM (inactive) | > 100 µM (inactive) | > 100 µM (inactive) | > 100 µM (inactive) | > 100 µM (inactive) | > 100 µM (inactive) | > 100 µM (inactive) | > 100 µM (inactive) | > 100 µM (inactive) | 
C=CCN1C(=O)/C(=C\c2cc(C(C)(C)C)c(O)c(C(C)(C)C)c2)NC1=S | 20.8 µM (inactive) | 33.9 µM (inactive) | 16.9 µM (inactive) | 19.9 µM (inactive) |  | 12.7 µM (inactive) | 22.2 | 20.9 µM (inactive) | 36.6 µM (inactive) | 19.4 µM (inactive) | 21.2 µM (inactive) | 23.9 µM (inactive) | 33.9 µM (inactive) | 21.2 µM (inactive) | 30.6 µM (inactive) | 15.9 µM (inactive) | 34.1 µM (inactive) |  |  | 28.9 µM (inactive)
CC(=O)C1C(=O)C(=O)N(c2ccc(Br)cc2)C1=O (stereo not drawn) | > 100 µM (inactive) | > 100 µM (inactive) | > 100 µM (inactive) | > 100 µM (inactive) | > 100 µM (inactive) | > 100 µM (inactive) | > 100 | > 100 µM (inactive) | > 100 µM (inactive) | > 100 µM (inactive) | > 100 µM (inactive) | > 100 µM (inactive) | > 100 µM (inactive) | > 100 µM (inactive) | > 100 µM (inactive) | > 100 µM (inactive) | > 100 µM (inactive) |  | > 100 µM (inactive) | > 100 µM (inactive)
N#CC1=C(N)Nc2nc3ccccc3n2C1c1ccccc1 (stereo not drawn) | 34 µM (inactive) | 23.8 µM (inactive) | > 100 µM (inactive) | 9.2 µM (inactive) |  | 29.8 µM (inactive) | 44.7 | 88.1 µM (inactive) | 51.5 µM (inactive) | 53.7 µM (inactive) | > 100 µM (inactive) | > 100 µM (inactive) | 55.1 µM (inactive) | 27.7 µM (inactive) |  | 37.6 µM (inactive) | 83.4 µM (inactive) | 20.2 µM (inactive) |  | 
CCOC(=O)c1cn2c(n1)sc1cccc(C)c12 | > 100 µM (inactive) | > 100 µM (inactive) | > 100 µM (inactive) | 52.6 µM (inactive) | > 100 µM (inactive) | > 100 µM (inactive) | > 100 | > 100 µM (inactive) | 47.3 µM (inactive) | > 100 µM (inactive) | > 100 µM (inactive) | > 100 µM (inactive) | > 100 µM (inactive) | > 100 µM (inactive) |  | 63.4 µM (inactive) | > 100 µM (inactive) |  | > 100 µM (inactive) | 
N#Cc1c(-c2ccc(Cl)cc2)c2c(n(C3OC(CO)C(O)C(O)C3O)c1=S)CCCC2 (stereo not drawn) | 60.8 µM (inactive) | 25.5 µM (inactive) | 38.3 µM (inactive) | 56.1 µM (inactive) | > 100 µM (inactive) | 53.1 µM (inactive) | > 100 | 85.3 µM (inactive) | 59.2 µM (inactive) | 50 µM (inactive) | > 100 µM (inactive) | > 100 µM (inactive) | 80.4 µM (inactive) | > 100 µM (inactive) | 78.7 µM (inactive) | 18.4 µM (inactive) |  |  | > 100 µM (inactive) | 46 µM (inactive)
CC(C)CC(NC(=O)C(CI)Cc1ccccc1)C(=O)Nc1ccccc1 (stereo not drawn) | > 100 µM (inactive) | 7.76 µM (inactive) | > 100 µM (inactive) | > 100 µM (inactive) | > 100 µM (inactive) | > 100 µM (inactive) | > 100 |  | > 100 µM (inactive) | > 100 µM (inactive) | > 100 µM (inactive) | > 100 µM (inactive) | > 100 µM (inactive) | > 100 µM (inactive) | > 100 µM (inactive) | > 100 µM (inactive) | > 100 µM (inactive) |  | > 100 µM (inactive) | > 100 µM (inactive)
COC(=O)C1=C(N)C2=C(N)Oc3ccccc3C2CC1=C(C#N)C#N (stereo not drawn) | 30.9 µM (inactive) | 23.4 µM (inactive) | 22.5 µM (inactive) | 29.1 µM (inactive) | 17.9 µM (inactive) | 23.5 µM (inactive) | 17.2 | 33.5 µM (inactive) | 18.4 µM (inactive) | 15.7 µM (inactive) | 19.6 µM (inactive) | 20.2 µM (inactive) | 23.9 µM (inactive) | 25 µM (inactive) |  | 25.8 µM (inactive) | 31.4 µM (inactive) | 25.9 µM (inactive) | 18 µM (inactive) | 
O=c1[nH]c2ccc(CC(=S)N3CCOCC3)cc2s1 | > 100 µM (inactive) | > 100 µM (inactive) | > 100 µM (inactive) | > 100 µM (inactive) |  | > 100 µM (inactive) | > 100 | > 100 µM (inactive) | > 100 µM (inactive) | > 100 µM (inactive) | > 100 µM (inactive) | > 100 µM (inactive) | > 100 µM (inactive) | > 100 µM (inactive) | > 100 µM (inactive) | > 100 µM (inactive) | > 100 µM (inactive) |  |  | 
CC(C)C[C@H](NC(=O)[C@@H](N)Cc1cccc2ccccc12)B(O)O | < 0.0216 µM (active) | 0.0203 µM (active) | 0.0417 µM (active) |  | 0.173 µM (active) | < 0.0165 µM (active) | 0.033 | 0.0575 µM (active) | 0.0665 µM (active) | 0.0281 µM (active) | 0.0249 µM (active) |  | 0.0719 µM (active) | < 0.0241 µM (active) | < 0.0149 µM (active) | < 0.0169 µM (active) | 0.0703 µM (active) | 0.0168 µM (active) | 0.0259 µM (active) | 0.398 µM (active)
COc1ccc2cc(CNCCCCCCNC(=O)Nc3cccc4ccccc34)ccc2c1 | > 100 µM (inactive) | > 100 µM (inactive) | > 100 µM (inactive) | > 100 µM (inactive) | > 100 µM (inactive) | > 100 µM (inactive) | > 100 | > 100 µM (inactive) | > 100 µM (inactive) | > 100 µM (inactive) | > 100 µM (inactive) |  | > 100 µM (inactive) | > 100 µM (inactive) | > 100 µM (inactive) | > 100 µM (inactive) | > 100 µM (inactive) | > 100 µM (inactive) | > 100 µM (inactive) | > 100 µM (inactive)
CCOc1nnnc2[nH]cnc12 | > 100 µM (inactive) | > 100 µM (inactive) | > 100 µM (inactive) | > 100 µM (inactive) | > 100 µM (inactive) | > 100 µM (inactive) | > 100 | > 100 µM (inactive) | > 100 µM (inactive) | > 100 µM (inactive) | > 100 µM (inactive) | > 100 µM (inactive) | > 100 µM (inactive) | > 100 µM (inactive) | > 100 µM (inactive) | > 100 µM (inactive) | > 100 µM (inactive) | > 100 µM (inactive) | > 100 µM (inactive) | 
